Laboratory results from PMC5924804, “Various Bee Pheromones Binding Affinity, Exclusive Chemosensillar Localization, and Key Amino Acid Sites Reveal the Distinctive Characteristics of Odorant-Binding Protein 11 in the Eastern Honey Bee, Apis cerana” (Frontiers in Physiology, 2018).
Residue numbers refer to the chain shown, from its start. Read-outs that look alike come from different tables or passages of the source.

Tests used:
recombinant AcerOBP11 = recombinant AcerOBP11 (Apis cerana, UniProt S5CRW7); experiment: biochemical; assay type: binding
recombinant AcerOBP11, sequence (S5CRW7 entry or part of it): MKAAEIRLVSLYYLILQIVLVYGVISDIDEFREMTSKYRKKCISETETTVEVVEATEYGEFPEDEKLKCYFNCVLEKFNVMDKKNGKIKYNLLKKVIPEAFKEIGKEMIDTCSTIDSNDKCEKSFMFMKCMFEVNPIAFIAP
Procedure: (§1) The interactions were monitored by recording 1-NPN fluorescence upon addition of 1-NPN aliquots with excitation wavelength of 337 nm, and emission wavelength of 350–450 nm, where the slit was 5 nm. Titrations were carried out at 25°C with 1 μmol/L recombinant protein in PBS buffer. The fluorescence intensities at the maximum of emission wavelength (400~410 nm) were recorded to calculate Scatchard plots. The dissociation constant of the protein/1-NPN complex (K1−NPN) was calculated from Scatchard plots and applied in the equation below to estimate ligand binding affinity. All 23 ligands (1 mM) used in competition experiments were dissolved in spectrally pure grade methanol. Three independent measurements were taken for binding data.

[1] = molecular target: T1, AcerOBP11m-Ile140 (Ile140Gly mutant) (Apis cerana, UniProt S5CRW7, I140G); experiment: Fluorescence competitive binding assay with 1-NPN, mutant AcerOBP11m-Ile140
T1 sequence (S5CRW7 1-142 I140G): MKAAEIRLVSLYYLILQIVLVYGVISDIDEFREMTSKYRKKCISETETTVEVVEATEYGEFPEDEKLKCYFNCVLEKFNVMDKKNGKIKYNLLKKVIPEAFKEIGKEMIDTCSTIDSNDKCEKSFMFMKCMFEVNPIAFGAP
Procedure: as §1, with “Fluorescence experiments on AcerOBP11 with N-phenyl-1-naphthylamine (1-NPN) were carried out on a Shimadzu RF-5301 spectrofluorimeter using a quartz cuvette in a right-angle configuration. The interactions” for “The interactions”
(§2) In order to verify whether the predicted interaction sites played a role in the binding of AcerOBP11 protein with ligands, site-directed mutagenesis of the corresponding amino acid was carried out. The mutant primers were designed by a partial overlap method before synthesis. The plasmids of pET-32a/AcerOBP11 wild-type were mutated by using fast mutagenesis system kit (Transgen, CN) and then transformed into BL21 (DE3) competent cells. The mutant plasmids of target sites were confirmed by sequencing, and then the mutant proteins were obtained by the induction and purification in the same method as AcerOBP11 wild-type above. The secondary structure of purified AcerOBP11 recombinant protein mutants was also analyzed using circular dichroism (CD) spectrometry (815 type, Jasco, JP). The mutant proteins were used for competitive fluorescence experiments with the six candidate ligands chosen from the previous section. The target amino acids and binding mode of AcerOBP11 binding with candidate ligands were acquired by comparing the dissociation constant KD between wild-type and mutant AcerOBP11. Statistical analysis data (mean ± SE) of KD values for the same mutated amino acid site were also used as one-way analysis of variance (ANOVA) followed by a mean LSD test.

[2] = molecular target: T2, AcerOBP11m-Phe101 (Phe101Gly mutant) (Apis cerana, UniProt S5CRW7, F101G); experiment: Fluorescence competitive binding assay with 1-NPN, mutant AcerOBP11m-Phe101; settings: for change of KD compared with AcerOBP11-wt: AcerOBP11m-Phe101 vs wild-type
T2 sequence (S5CRW7 1-142 F101G): T1 sequence (S5CRW7 1-142 I140G) with F101G, G140I
Procedure: as §1, with “Fluorescence experiments on AcerOBP11 with N-phenyl-1-naphthylamine (1-NPN) were carried out on a Shimadzu RF-5301 spectrofluorimeter using a quartz cuvette in a right-angle configuration. The interactions” for “The interactions”
as §2

[3] = molecular target: T3, AcerOBP11m-Ile97 (Ile97Gly mutant) (Apis cerana, UniProt S5CRW7, I97G); experiment: Fluorescence competitive binding assay with 1-NPN, mutant AcerOBP11m-Ile97
T3 sequence (S5CRW7 1-142 I97G): T1 sequence (S5CRW7 1-142 I140G) with I97G, G140I
Procedure: as §1, with “Fluorescence experiments on AcerOBP11 with N-phenyl-1-naphthylamine (1-NPN) were carried out on a Shimadzu RF-5301 spectrofluorimeter using a quartz cuvette in a right-angle configuration. The interactions” for “The interactions”
as §2

ASP1 = molecular target: ASP1; design: method as in Weng et al., 2013; settings: ref Weng et al., 2013; cited from earlier work
ASP2 = molecular target: ASP2; design: method as in Li et al., 2013; settings: ref Li et al., 2013; cited from earlier work
[4] = AcerOBP11m-Ile140, Table S4, mean ± SE, read-out: KD
[5] = AcerOBP11m-Ile140, Table S4, mean ± SE, read-out: [IC50]
[6] = AcerOBP11m-Phe101, Table S4, mean ± SE, read-out: KD
[7] = AcerOBP11m-Phe101, Table S4, mean ± SE, read-out: [IC50]
[8] = KD, calculated from IC50, KD = [IC50]/(1+[1-NPN]/K1-NPN), Table 1
[9] = [IC50], AcerOBP11-wt, Table S4, mean ± SE
[10] = [IC50], displacement of 1-NPN, 1 μmol/L protein in PBS, 25°C, Table 1
[11] = AcerOBP11m-Ile97, Table S4, mean ± SE, read-out: KD
[12] = AcerOBP11m-Ile97, Table S4, mean ± SE, read-out: [IC50]
[13] = calculated from IC50, KD = [IC50]/(1+[1-NPN]/K1-NPN), Table 1, read-out: KD
[14] = displacement of 1-NPN, 1 μmol/L protein in PBS, 25°C, Table 1, read-out: [IC50]
[15] = KD, AcerOBP11-wt, Table S4, mean ± SE

Compound C=CC(C)(O)CCC=C(C)C (stereo not drawn) [Linalool] has an IC50 (recombinant AcerOBP11) of 55 µM and a Kd (recombinant AcerOBP11) of 9.53 µM.

Work on CCCCCCCCCCCCCC(=O)O [Myristic acid] yielded an IC50 (recombinant AcerOBP11) of 45.2 µM and a Kd (recombinant AcerOBP11) of 7.71 µM.

Compound C=CCc1ccc(OC)c(OC)c1 [4-Allylveratrole] has a Kd [1, 4] of 4.28 ± 0.279 µM, an IC50 [1, 5] of 22.5 ± 1.46 µM and a Kd [2, 6] of 4.84 ± 0.092 µM. For the same compound, the IC50 [2, 7] was 20.1 ± 0.381 µM, the “change of KD compared with AcerOBP11-wt” value [2] was “did not observe significant increases” and the Kd (recombinant AcerOBP11; [8]) was 2.67 µM. The IC50 (recombinant AcerOBP11; [9]) was 21 ± 0.22 µM, the IC50 (recombinant AcerOBP11; [10]) was 16.8 µM and the Kd [3, 11] was 5.83 ± 0.06 µM. The IC50 [3, 12] was 25.823 ± 0.022 µM and the “change of KD compared with AcerOBP11-wt” value ([3]; AcerOBP11m-Ile97 vs wild-type) was “significantly increased”.

For CC(=O)/C=C/C1=C(C)CCCC1(C)C [β- Ionone], the Kd (recombinant AcerOBP11; [8]) is listed as 3.79 µM, the IC50 (recombinant AcerOBP11; [10]) is listed as 21.1 µM and the Kd (ASP1) is listed as 14.7 µM. The Kd (ASP2) was 5.14 µM.

In the case of CC12CCC(CC1)C(C)(C)O2 [1,8-Cineole], the IC50 (recombinant AcerOBP11) is reported as 21.1 µM and the Kd (recombinant AcerOBP11; [13]) is reported as 4.3 µM.

Compound CC(C)=CCC/C(C)=C/CO [Geraniol] has a Kd (recombinant AcerOBP11; [8]) of 8.58 µM and an IC50 (recombinant AcerOBP11; [10]) of 39.9 µM.

Compound O=CCc1ccccc1 [Phenylacetaldehyde] has an IC50 (recombinant AcerOBP11) of 21.6 µM and a Kd (recombinant AcerOBP11) of 3.75 µM.

With C=CC(=C)CCC=C(C)C [Myrcene] the Kd (recombinant AcerOBP11; [13]) was 10.7 µM and the IC50 (recombinant AcerOBP11; [14]) was 45.7 µM.

With CC1=CCC2C(C1)C2(C)C (stereo not drawn) [3-Carene] the Kd (recombinant AcerOBP11; [13]) was 9.79 µM.

With CCCCCCCC/C=C\CCCCCCCC(=O)OC [Methyl oleate] the “relative fluorescence of 1-NPN” value (recombinant AcerOBP11; ligand 1-11 μmol/L) was at least 50%.

Work on CC(C)=CCC/C(C)=C/CC/C(C)=C/CO [Farnesol] yielded a Kd [1, 4] of 4.93 ± 0.133 µM, an IC50 [1, 5] of 19.9 ± 0.536 µM and a Kd [2, 6] of 3.14 ± 0.072 µM. For the same compound, the IC50 [2, 7] was 17.8 ± 0.411 µM, the Kd (recombinant AcerOBP11; [8]) was 4.71 µM and the IC50 (recombinant AcerOBP11; [9]) was 20.6 ± 0.237 µM. For the same compound, the IC50 (recombinant AcerOBP11; [10]) was 32.2 µM, the Kd [3, 11] was 5.24 ± 0.069 µM and the IC50 [3, 12] was 21.3 ± 0.237 µM. For the same compound, the “change of KD compared with AcerOBP11-wt” value ([3]; AcerOBP11m-Ile97 vs wild-type) was “significantly increased”.

CCCCCCO [n-hexanol] showed a Kd [1, 4] of 3.19 ± 0.076 µM, an IC50 [1, 5] of 11.8 ± 0.283 µM and a Kd [2, 6] of 2.321 ± 0.02 µM. The IC50 [2, 7] was 14.26 ± 0.124 µM, the Kd (recombinant AcerOBP11; [15]) was 2.79 ± 0.104 µM and the Kd (recombinant AcerOBP11; [8]) was 2.79 µM. For the same compound, the IC50 (recombinant AcerOBP11; [9]) was 21.1 ± 0.785 µM, the Kd [3, 11] was 10.1 ± 0.456 µM and the IC50 [3, 12] was 33.4 ± 0.785 µM. For the same compound, the “change of KD compared with AcerOBP11-wt” value ([3]; AcerOBP11m-Ile97 vs wild-type) was “significantly increased” and the “increase of KD compared with AcerOBP11-wt” value ([3]; AcerOBP11m-Ile97 vs wild-type, p < 0.01) was 3.60 fold.

COC(=O)c1ccc(O)cc1 [HOB, methyl p-hydroxybenzoate] gave an IC50 [1] of 5.57 ± 0.114 µM, a Kd [1] of 1.91 ± 0.039 µM and an IC50 [2] of 6.257 ± 0.025 µM. The Kd [2] was 1.447 ± 0.006 µM, the “change of KD compared with AcerOBP11-wt” value [2] was “did not observe significant increases” and the Kd (recombinant AcerOBP11; KD) was under 10 µM. It also gave a Kd (recombinant AcerOBP11; [8]) of 1.35 µM, an IC50 (recombinant AcerOBP11; [9]) of 8.31 ± 0.156 µM and an IC50 (recombinant AcerOBP11; [10]) of 8.33 µM. It also gave an IC50 [3] of 6.09 ± 0.156 µM and a Kd [3] of 1.48 ± 0.045 µM.

CCCCCCCCCCCCCCCC(=O)OCC [Ethyl palmitate] showed a Kd [1, 4] of 5.34 ± 0.167 µM, an IC50 [1, 5] of 16.6 ± 0.52 µM and a Kd [2, 6] of 3.89 ± 0.143 µM. For the same compound, the IC50 [2, 7] was 20.3 ± 0.747 µM, the “change of KD compared with AcerOBP11-wt” value [2] was “did not observe significant increases” and the Kd (recombinant AcerOBP11; [15]) was 3.788 ± 0.012 µM. It also gave a Kd (recombinant AcerOBP11; [8]) of 3.82 µM, an IC50 (recombinant AcerOBP11; [9]) of 24.39 ± 0.076 µM and an IC50 (recombinant AcerOBP11; [10]) of 19.4 µM. The Kd [3, 11] was 1.86 ± 0.022 µM and the IC50 [3, 12] was 6.61 ± 0.076 µM.

Work on CC(C)=CCC/C(C)=C\CO [Nerol] yielded a Kd (recombinant AcerOBP11; [8]) of 6.13 µM and an IC50 (recombinant AcerOBP11; [10]) of 33.9 µM.

CCCCCC(C)=O [2-Heptanone] showed a Kd (recombinant AcerOBP11; [13]) of 4.32 µM and an IC50 (recombinant AcerOBP11; [14]) of 31.1 µM.

Work on CCCCCCCCCCCCCCCC(=O)OC [Methyl palmitate] yielded a Kd (recombinant AcerOBP11; [13]) of 4.38 µM and an IC50 (recombinant AcerOBP11; [14]) of 21 µM.

In the case of CC(=O)OCCC(C)C [Isoamyl acetate], the Kd [1, 4] is reported as 3.99 ± 0.221 µM, the IC50 [1, 5] is reported as 12.9 ± 0.697 µM and the “increase of KD compared with AcerOBP11-wt” value ([1]; AcerOBP11m-Ile140 vs wild-type, p < 0.01) is reported as 1.8 fold. For the same compound, the Kd [2, 6] was 2.61 ± 0.063 µM, the IC50 [2, 7] was 10.7 ± 0.26 µM and the “change of KD compared with AcerOBP11-wt” value [2] was “did not observe significant increases”. The Kd (recombinant AcerOBP11; [8]) was 3.3 µM, the IC50 (recombinant AcerOBP11; [9]) was 16.88 ± 0.144 µM and the IC50 (recombinant AcerOBP11; [10]) was 24 µM. The Kd [3, 11] was 4.544 ± 0.022 µM, the IC50 [3, 12] was 17.75 ± 0.144 µM and the “change of KD compared with AcerOBP11-wt” value ([3]; AcerOBP11m-Ile97 vs wild-type) was “significantly increased”.

In the case of CC1CCC(C(C)C)C(O)C1 (racemic) [DL-Menthol], the IC50 (recombinant AcerOBP11) is reported as 26.2 µM and the Kd (recombinant AcerOBP11) is reported as 4.34 µM.

CC(=O)CCCCC/C=C/C(=O)O [9-ODA, (E)-9-oxo-2-decanoic acid] gave a Kd (recombinant AcerOBP11; [13]) of 6.67 µM, an IC50 (recombinant AcerOBP11; [14]) of 36.9 µM and a Kd (recombinant AcerOBP11; read-out: KD) of under 10 µM.

COC(=O)c1ccccc1O [Methyl salicylate] gave an IC50 (recombinant AcerOBP11) of 40 µM and a Kd (recombinant AcerOBP11) of 6.83 µM.

Cc1ccc(C=O)cc1C [3,4-Dimethylbenzaldehyde] showed a Kd (recombinant AcerOBP11; [13]) of 4.76 µM and an IC50 (recombinant AcerOBP11; [14]) of 36.7 µM.
